pIC50: −log10 of the molar value.
Target: Neuraminidase (Influenza A virus (A/Puerto Rico/8/1934(H1N1)), UniProt P03468, H274Y)
Test: Inhibition of influenza A virus H1N1 neuraminidase H274Y mutant

C[C@@H]1C[C@H](C)C(=O)[C@@H]2O[C@@H]2[C@@H]2[C@@H](O)[C@@H]3OC4=C(C(=O)O[C@@]42C[C@H]3C)C1=O
pIC50: < 4.36
